For this experiment, the target named is T1, CD14 (Homo sapiens, UniProt P08571).
T1 construct: full-length human CD14 expressed in HEK293T cells, recombinant; His-tagged protein used in flow cytometry
T1 sequence (P08571 20-345): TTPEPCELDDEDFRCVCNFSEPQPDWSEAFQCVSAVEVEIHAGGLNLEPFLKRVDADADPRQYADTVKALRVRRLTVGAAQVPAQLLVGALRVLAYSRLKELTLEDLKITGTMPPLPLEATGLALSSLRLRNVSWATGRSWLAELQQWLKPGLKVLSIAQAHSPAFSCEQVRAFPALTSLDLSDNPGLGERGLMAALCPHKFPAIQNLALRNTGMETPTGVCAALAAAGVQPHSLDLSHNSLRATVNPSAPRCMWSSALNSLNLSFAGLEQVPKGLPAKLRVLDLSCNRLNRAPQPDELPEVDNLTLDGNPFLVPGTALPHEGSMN
Briefly: isothermal titration calorimetry. Type of experiment: binding.

Read-outs that look alike come from different tables or passages of the source.

Drawing on publication PMC9287416, “Externalized phosphatidylinositides on apoptotic cells are eat-me signals recognized by CD14” (Cell Death and Differentiation, 2022), this text covers Kd for two compounds.

As a reminder, the Kd is the constant that tells how readily two partners part at equilibrium. A lower Kd goes with a tighter complex.

Turning to `O=P(O)(O)O[C@H]1[C@H](OP(=O)(O)O)[C@@H](OP(=O)(O)O)[C@H](OP(=O)(O)O)[C@@H](OP(=O)(O)O)[C@H]1OP(=O)(O)O` [IP6], the Kd was determined as 6.2 ± 1.2 µM.
Regarding PI(3,4,5)P3, the Kd (PI(3,4,5)P3 in liposomes) turned out to be 5.6 ± 0.6 µM.
